In PubChem BioAssay (NCI):
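Interpolation was linear, between the two tested concentrations surrounding the appropriate level; five concentrations were tested over 48 hours in 96-well plates. Definition used: TGI = concentration required for complete inhibition of growth.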

Legend:
Test in all cases: inhibition of tumour cell growth, NCI panel, 48 h
[1] = system: SNB-78 CNS
[2] = system: UO-31 renal
[3] = system: HCT-15 colon
[4] = system: DLD-1 colon
[5] = system: ACHN renal
[6] = system: NCI-H460 lung
[7] = system: EKVX NSCLC
[8] = system: HCC-2998 colon
[9] = system: OVCAR-5 ovarian
[10] = system: SN12C renal
[11] = system: MALME-3M melanoma
[12] = system: SNB-19 CNS
[13] = system: SF-539 CNS
[14] = system: KM12 colon
[15] = system: K-562 leukemia
[16] = system: HL-60(TB) leukemia
[17] = system: SK-MEL-5 melanoma
[18] = system: LXFL 529 NSCLC
[19] = system: OVCAR-4 ovarian
[20] = system: COLO 205 colon
[21] = system: A498 renal
[22] = system: TK-10 renal
[23] = system: SNB-75 CNS
[24] = system: NCI-H23 lung
[25] = system: SR leukemia
[26] = system: 786-0 renal
[27] = system: NCI-H226 lung
[28] = system: M14 melanoma
[29] = system: SW-620 colon
[30] = system: A549 NSCLC
[31] = system: DMS 273 small cell lung
[32] = system: SK-MEL-28 melanoma
[33] = system: XF 498 CNS
[34] = system: SK-MEL-2 melanoma
[35] = system: HOP-62 NSCLC
[36] = system: HCT-116 colon
[37] = system: NCI-H522 lung
[38] = system: SF-268 CNS
[39] = system: DMS 114 small cell lung
[40] = system: M19-MEL melanoma
[41] = system: OVCAR-3 ovarian
[42] = system: UACC-257 melanoma
[43] = system: HOP-92 NSCLC
[44] = system: RPMI-8226 leukemia
[45] = system: U251 CNS
[46] = system: UACC-62 melanoma
[47] = system: OVCAR-8 ovarian
[48] = system: CCRF-CEM leukemia
[49] = system: KM20L2 colon
[50] = system: CAKI-1 renal
[51] = system: LOX IMVI melanoma
[52] = system: MOLT-4 leukemia
[53] = system: HOP-18 NSCLC
[54] = system: HT29 colon
[55] = system: IGROV1 ovarian
[56] = system: SK-OV-3 ovarian
[57] = system: SF-295 CNS
[58] = system: RXF 393 renal

SMILES: CC(C)OP(=O)(OC(C)C)/C(=N/N)NNc1ccc([N+](=O)[O-])cc1
- TGI [1]: > 100 µM
- TGI [2]: > 100 µM
- TGI [3]: > 100 µM
- TGI [4]: > 100 µM
- TGI [5]: > 100 µM
- TGI [6]: > 100 µM
- TGI [7]: > 100 µM
- TGI [8]: > 100 µM
- TGI [9]: > 100 µM
- TGI [10]: > 100 µM
- TGI [11]: > 100 µM
- TGI [12]: > 100 µM
- TGI [13]: > 100 µM
- TGI [14]: > 100 µM
- TGI [15]: > 100 µM
- TGI [16]: > 100 µM
- TGI [17]: > 100 µM
- TGI [18]: > 100 µM
- TGI [19]: > 100 µM
- TGI [20]: > 100 µM
- TGI [21]: > 100 µM
- TGI [22]: > 100 µM
- TGI [23]: > 100 µM
- TGI [24]: > 100 µM
- TGI [25]: > 100 µM
- TGI [26]: > 100 µM
- TGI [27]: > 100 µM
- TGI [28]: > 100 µM
- TGI [29]: > 100 µM
- TGI [30]: > 100 µM
- TGI [31]: > 100 µM
- TGI [32]: > 100 µM
- TGI [33]: > 100 µM
- TGI [34]: > 100 µM
- TGI [35]: > 100 µM
- TGI [36]: > 100 µM
- TGI [37]: > 100 µM
- TGI [38]: > 100 µM
- TGI [39]: > 100 µM
- TGI [40]: > 100 µM
- TGI [41]: > 100 µM
- TGI [42]: > 100 µM
- TGI [43]: > 100 µM
- TGI [44]: > 100 µM
- TGI [45]: > 100 µM
- TGI [46]: > 100 µM
- TGI [47]: > 100 µM
- TGI [48]: > 100 µM
- TGI [49]: > 100 µM
- TGI [50]: > 100 µM
- TGI [51]: > 100 µM
- TGI [52]: > 100 µM

SMILES: COc1ccc(/C=N/NC(=O)NCCCN(C)C)cc1
- TGI [1]: > 100 µM
- TGI [2]: > 100 µM
- TGI [3]: > 100 µM
- TGI [4]: > 100 µM
- TGI [5]: > 100 µM
- TGI [6]: > 100 µM
- TGI [53]: > 100 µM
- TGI [10]: > 100 µM
- TGI [11]: > 100 µM
- TGI [12]: > 100 µM
- TGI [13]: > 100 µM
- TGI [14]: > 100 µM
- TGI [54]: > 100 µM
- TGI [15]: > 100 µM
- TGI [16]: > 100 µM
- TGI [17]: > 100 µM
- TGI [21]: > 100 µM
- TGI [22]: > 100 µM
- TGI [24]: > 100 µM
- TGI [27]: > 100 µM
- TGI [55]: > 100 µM
- TGI [29]: > 100 µM
- TGI [56]: > 100 µM
- TGI [30]: > 100 µM
- TGI [31]: > 100 µM
- TGI [32]: > 100 µM
- TGI [33]: > 100 µM
- TGI [34]: > 100 µM
- TGI [36]: > 100 µM
- TGI [37]: > 100 µM
- TGI [57]: > 100 µM
- TGI [38]: > 100 µM
- TGI [39]: > 100 µM
- TGI [41]: > 100 µM
- TGI [42]: > 100 µM
- TGI [45]: > 100 µM
- TGI [46]: > 100 µM
- TGI [47]: > 100 µM
- TGI [58]: > 100 µM
- TGI [48]: > 100 µM
- TGI [51]: > 100 µM
- TGI [52]: > 100 µM

SMILES: C=C(CS(=O)(=O)c1ccccc1)[P+](c1ccccc1)(c1ccccc1)c1ccccc1
- TGI [1]: > 100 µM
- TGI [2]: 94.3 µM
- TGI [3]: > 100 µM
- TGI [4]: > 100 µM
- TGI [5]: 53.1 µM
- TGI [6]: 66 µM
- TGI [7]: > 100 µM
- TGI [8]: 47.2 µM
- TGI [9]: > 100 µM
- TGI [10]: 32.4 µM
- TGI [11]: 38.3 µM
- TGI [12]: > 100 µM
- TGI [13]: 78.2 µM
- TGI [14]: 29 µM
- TGI [54]: 37.3 µM
- TGI [15]: 31.7 µM
- TGI [16]: 32.6 µM
- TGI [17]: 29.1 µM
- TGI [19]: > 100 µM
- TGI [21]: > 100 µM
- TGI [22]: 92.4 µM
- TGI [23]: 67.3 µM
- TGI [24]: 62.7 µM
- TGI [26]: 47.3 µM
- TGI [27]: 36.7 µM
- TGI [28]: 39.4 µM
- TGI [55]: 68.4 µM
- TGI [29]: 51.1 µM
- TGI [56]: 81.6 µM
- TGI [30]: > 100 µM
- TGI [31]: 33.4 µM
- TGI [32]: 25.5 µM
- TGI [33]: 28.9 µM
- TGI [34]: > 100 µM
- TGI [35]: 90 µM
- TGI [36]: 25.2 µM
- TGI [37]: 44.1 µM
- TGI [57]: 50 µM
- TGI [38]: 29.6 µM
- TGI [39]: 58.7 µM
- TGI [40]: 50.4 µM
- TGI [41]: 37.9 µM
- TGI [42]: 22.2 µM
- TGI [43]: 65.6 µM
- TGI [44]: 11.4 µM
- TGI [46]: 56.9 µM
- TGI [47]: 74.1 µM
- TGI [58]: 38.4 µM
- TGI [48]: 25 µM
- TGI [49]: 32.8 µM
- TGI [50]: 65.9 µM
- TGI [51]: 30 µM
- TGI [52]: 39.6 µM
